In patent US20100029654A1, “CARDIOVASCULAR COMPOSITIONS AND USE OF THE SAME FOR THE TREATMENT OF ALZHEIMER'S DISEASE” (MOUNT SINAI SCHOOL OF MEDICINE, priority 2006, published 2010):
Counter-ions that a name gives are not always drawn. Like-named read-outs stand apart in the source and are kept apart here.

Assays:
[1] = system: primary cortico-hippocampal neuron cultures; assay: MTT in primary screening
Aβ1-40 = Aβ1-40 content in conditioned medium of primary cortico-hippocampal neuron cultures from Tg2576 mice (ELISA; primary and secondary dose-response screening); format: cell-based, mouse; details: for activity at 100 µM: Mus musculus, Neuron, 24 h, read-out: Ab1-40 (% of ctl); for activity at 100 µM / Ab1-40 (% of ctl): drug 100 μM; for reduced Aβ1-40: <85% of ctl
How it was run: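 Primary cortico-hippocampal neurons from embryonic Tg2576 mice were plated at 1.0×10^5 cells per well on poly-D-lysine-coated 96-well plates in Neurobasal with 2% B27, 0.5 mM L-glutamine and 1% penicillin-streptomycin. Cultures received drug in 1% DMSO, and Aβ1-40 in the conditioned medium was measured by BioSource ELISA 24 hours after treatment, relative to vehicle controls.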

[2] = system: primary cortico-hippocampal neuron cultures; assay: lactate dehydrogenase (LDH) activity assay in parallel neuron cultures
Experimental: For in vitro treatments drugs available from “The Spectrum Collection” in stocks of 10 mM in DMSO were applied directly to cultures to the desired concentrations (final 1% DMSO); control primary neuron cultures from Tg2576 embryos were treated with vehicle resulting in a final 1% DMSO.
Cell viability was assessed using a commercial available LDH assay kit according to the manufacture's instruction (Promega).

Aβ1-42 = Aβ1-42 content in conditioned medium of primary cortico-hippocampal neuron cultures from Tg2576 mice (ELISA; primary and secondary dose-response screening); format: cell-based, mouse; details: for activity at 100 µM: Mus musculus, Neuron, 24 h, read-out: Ab1-42 (% of ctl); for activity at 100 µM / Ab1-42 (% of ctl): drug 100 μM; for reducing Aβ1-42: <85% of ctl
How it was run: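 This screen tested cardiovascular drugs for Aβ-lowering in Tg2576 embryonic cortico-hippocampal neuron cultures plated at 1.0×10^5 cells per well in poly-D-lysine-coated 96-well plates with Neurobasal/B27 medium. Drugs at 100 μM were added directly to the medium in duplicate, with 1% DMSO alone as the control. Conditioned medium was then collected, and its Aβ1-42 level was quantified with BioSource ELISA kits.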

[3] = Primary Screening, table sorted by Aβ1-40
[4] = primary screening, table sorted by Aβ1-42
[5] = primary screening, Tg2576 neuron cultures, table sorted by Aβ1-42

CN1C[C@H](CNC(=O)OCc2ccccc2)C[C@@H]2c3cccc4c3c(cn4C)C[C@H]21 [Metergoline]
MTT (% of ctl) [1, 3]: 76.5 % of ctl
MTT (% of ctl) [1, 4]: 76.5 % of ctl
activity at 100 µM (Aβ1-40; [3]): -3.1%
activity at 100 µM (Aβ1-40; [5]): -3.1%
reduced Aβ1-40 (Aβ1-40; primary screening): reduced Aβ1-40
LDH (% of ctl) [2, 3]: 159.3 % of ctl
LDH (% of ctl) [2, 4]: 159.3 % of ctl
activity at 100 µM (Aβ1-42; [3]): 2.3%
activity at 100 µM (Aβ1-42; [5]): 2.3%
reducing Aβ1-42 (Aβ1-42; primary screening): useful in reducing Aβ1-42

CC(C)c1nc(N(C)S(C)(=O)=O)nc(-c2ccc(F)cc2)c1/C=C/[C@@H](O)C[C@@H](O)CC(=O)O [Rosuvastatin]
MTT (% of ctl) [1, 3]: 103.8 % of ctl
MTT (% of ctl) [1, 4]: 103.8 % of ctl
activity at 100 µM (Aβ1-40; [3]): 83.6%
activity at 100 µM (Aβ1-40; [5]): 83.6%
reduced Aβ1-40 (Aβ1-40; primary screening): reduced Aβ1-40
LDH (% of ctl) [2, 3]: 298.7 % of ctl
LDH (% of ctl) [2, 4]: 298.7 % of ctl
activity at 100 µM (Aβ1-42; [3]): 65.6%
activity at 100 µM (Aβ1-42; [5]): 65.6%
reducing Aβ1-42 (Aβ1-42; primary screening): useful in reducing Aβ1-42

COc1ccc([C@@H]2Sc3ccccc3N(CCN(C)C)C(=O)[C@@H]2OC(C)=O)cc1 [Diltiazem Hydrochloride]
MTT (% of ctl) [1, 3]: 97.8 % of ctl
MTT (% of ctl) [1, 4]: 97.8 % of ctl
activity at 100 µM (Aβ1-40; [3]): 108%
activity at 100 µM (Aβ1-40; [5]): 108%
LDH (% of ctl) [2, 3]: 96.1 % of ctl
LDH (% of ctl) [2, 4]: 96.1 % of ctl
activity at 100 µM (Aβ1-42; [3]): 98.9%
activity at 100 µM (Aβ1-42; [5]): 98.9%

O=c1cc(-c2ccccc2)oc2cc(O)cc(O)c12 [Chrysin]
MTT (% of ctl) [1, 3]: 84.5 % of ctl
MTT (% of ctl) [1, 4]: 84.5 % of ctl
activity at 100 µM (Aβ1-40; [3]): 71.6%
activity at 100 µM (Aβ1-40; [5]): 71.6%
LDH (% of ctl) [2, 3]: 118.3 % of ctl
LDH (% of ctl) [2, 4]: 118.3 % of ctl
activity at 100 µM (Aβ1-42; [3]): 83.4%
activity at 100 µM (Aβ1-42; [5]): 83.4%

NC(N)=NC(=O)c1nc(Cl)c(N2CCCCCC2)nc1N [N,N-Hexamethyleneamiloride]
MTT (% of ctl) [1, 3]: 96.1 % of ctl
MTT (% of ctl) [1, 4]: 96.1 % of ctl
Ab1-40 (% of ctl) (Aβ1-40; [3]): 15.4 % of ctl
reduced Aβ1-40 (Aβ1-40; primary screening): reduced Aβ1-40
Ab1-40 (% of ctl) (Aβ1-40; [5]): 15.4 % of ctl
LDH (% of ctl) [2, 3]: 117.3 % of ctl
LDH (% of ctl) [2, 4]: 117.3 % of ctl
Ab1-42 (% of ctl) (Aβ1-42; [3]): 26.2 % of ctl
reducing Aβ1-42 (Aβ1-42; primary screening): useful in reducing Aβ1-42
Ab1-42 (% of ctl) (Aβ1-42; [5]): 26.2 % of ctl

Cc1cccc(Nc2ccncc2S(=O)(=O)NC(=O)NC(C)C)c1 [Torsemide]
MTT (% of ctl) [1, 3]: 99.2 % of ctl
MTT (% of ctl) [1, 4]: 99.2 % of ctl
activity at 100 µM (Aβ1-40; [3]): 107%
activity at 100 µM (Aβ1-40; [5]): 107%
LDH (% of ctl) [2, 3]: 107.5 % of ctl
LDH (% of ctl) [2, 4]: 107.5 % of ctl
activity at 100 µM (Aβ1-42; [3]): 104%
activity at 100 µM (Aβ1-42; [5]): 104%

CN1C(C)(C)CCCC1(C)C [Pempidine Tartrate]
MTT (% of ctl) [1, 3]: 91.3 % of ctl
MTT (% of ctl) [1, 4]: 91.3 % of ctl
activity at 100 µM (Aβ1-40; [3]): 80.9%
activity at 100 µM (Aβ1-40; [5]): 80.9%
reduced Aβ1-40 (Aβ1-40; primary screening): reduced Aβ1-40
LDH (% of ctl) [2, 3]: 108.4 % of ctl
LDH (% of ctl) [2, 4]: 108.4 % of ctl
activity at 100 µM (Aβ1-42; [3]): 78.6%
activity at 100 µM (Aβ1-42; [5]): 78.6%
reducing Aβ1-42 (Aβ1-42; primary screening): useful in reducing Aβ1-42

CC(C)(C)NC[C@H](O)COc1nsnc1N1CCOCC1 [Timolol Maleate]
MTT (% of ctl) [1, 3]: 99.2 % of ctl
MTT (% of ctl) [1, 4]: 99.2 % of ctl
activity at 100 µM (Aβ1-40; [3]): 101%
activity at 100 µM (Aβ1-40; [5]): 101%
LDH (% of ctl) [2, 3]: 104.4 % of ctl
LDH (% of ctl) [2, 4]: 104.4 % of ctl
activity at 100 µM (Aβ1-42; [3]): 104%
activity at 100 µM (Aβ1-42; [5]): 104%

CC(CCc1ccc(O)cc1)NCCc1ccc(O)c(O)c1 (stereo not shown) [Dobutamine Hydrochloride]
MTT (% of ctl) [1, 3]: 99.5 % of ctl
MTT (% of ctl) [1, 4]: 99.5 % of ctl
activity at 100 µM (Aβ1-40; [3]): 90.1%
activity at 100 µM (Aβ1-40; [5]): 90.1%
LDH (% of ctl) [2, 3]: 103.1 % of ctl
LDH (% of ctl) [2, 4]: 103.1 % of ctl
activity at 100 µM (Aβ1-42; [3]): 103%
activity at 100 µM (Aβ1-42; [5]): 103%

CCOC(=O)[N-]c1cn(N2CCOCC2)n[o+]1 [Molsidomine]
MTT (% of ctl) [1, 3]: 15.0 % of ctl
MTT (% of ctl) [1, 4]: 15.0 % of ctl
activity at 100 µM (Aβ1-40; [3]): 118%
activity at 100 µM (Aβ1-40; [5]): 118%
LDH (% of ctl) [2, 3]: 1127.4 % of ctl
LDH (% of ctl) [2, 4]: 1127.4 % of ctl
activity at 100 µM (Aβ1-42; [3]): 121%
activity at 100 µM (Aβ1-42; [5]): 121%

CCCNCC(O)COc1ccccc1C(=O)CCc1ccccc1 (stereo not shown) [Propafenone Hydrochloride]
MTT (% of ctl) [1, 3]: 95.2 % of ctl
MTT (% of ctl) [1, 4]: 95.2 % of ctl
activity at 100 µM (Aβ1-40; [3]): 36.3%
activity at 100 µM (Aβ1-40; [5]): 36.3%
reduced Aβ1-40 (Aβ1-40; primary screening): reduced Aβ1-40
LDH (% of ctl) [2, 3]: 113.7 % of ctl
LDH (% of ctl) [2, 4]: 113.7 % of ctl
activity at 100 µM (Aβ1-42; [3]): 56.4%
activity at 100 µM (Aβ1-42; [5]): 56.4%
reducing Aβ1-42 (Aβ1-42; primary screening): useful in reducing Aβ1-42

Phenylbutyrate Sodium
MTT (% of ctl) [1, 3]: 70.2 % of ctl
MTT (% of ctl) [1, 4]: 70.2 % of ctl
Ab1-40 (% of ctl) (Aβ1-40; [3]): 102.1 % of ctl
Ab1-40 (% of ctl) (Aβ1-40; [5]): 102.1 % of ctl
LDH (% of ctl) [2, 3]: 192.3 % of ctl
LDH (% of ctl) [2, 4]: 192.3 % of ctl
Ab1-42 (% of ctl) (Aβ1-42; [3]): 86.6 % of ctl
Ab1-42 (% of ctl) (Aβ1-42; [5]): 86.6 % of ctl

NS(=O)(=O)c1cc(C(=O)O)c(NCc2ccco2)cc1Cl [Furosemide]
MTT (% of ctl) [1, 3]: 101.0 % of ctl
MTT (% of ctl) [1, 4]: 101.0 % of ctl
activity at 100 µM (Aβ1-40; [3]): 118%
activity at 100 µM (Aβ1-40; [5]): 118%
LDH (% of ctl) [2, 3]: 98.2 % of ctl
LDH (% of ctl) [2, 4]: 98.2 % of ctl
activity at 100 µM (Aβ1-42; [3]): 95.7%
activity at 100 µM (Aβ1-42; [5]): 95.7%

COc1ccc(C2C(=O)c3ccccc3C2=O)cc1 [Anisindione]
MTT (% of ctl) [1, 3]: 110.7 % of ctl
MTT (% of ctl) [1, 4]: 110.7 % of ctl
activity at 100 µM (Aβ1-40; [3]): 90.1%
activity at 100 µM (Aβ1-40; [5]): 90.1%
LDH (% of ctl) [2, 3]: 148.9 % of ctl
LDH (% of ctl) [2, 4]: 148.9 % of ctl
activity at 100 µM (Aβ1-42; [3]): 103%
activity at 100 µM (Aβ1-42; [5]): 103%

Cn1cnc2c1c(=O)[nH]c(=O)n2C [Theobromine]
MTT (% of ctl) [1, 3]: 97.2 % of ctl
MTT (% of ctl) [1, 4]: 97.2 % of ctl
activity at 100 µM (Aβ1-40; [3]): 101%
activity at 100 µM (Aβ1-40; [5]): 101%
LDH (% of ctl) [2, 3]: 118.3 % of ctl
LDH (% of ctl) [2, 4]: 118.3 % of ctl
activity at 100 µM (Aβ1-42; [3]): 117%
activity at 100 µM (Aβ1-42; [5]): 117%

NC[C@H]1CC[C@H](C(=O)O)CC1 [Tranexamic Acid]
MTT (% of ctl) [1, 3]: 96.8 % of ctl
MTT (% of ctl) [1, 4]: 96.8 % of ctl
activity at 100 µM (Aβ1-40; [3]): 84.9%
activity at 100 µM (Aβ1-40; [5]): 84.9%
reduced Aβ1-40 (Aβ1-40; primary screening): reduced Aβ1-40
LDH (% of ctl) [2, 3]: 112.8 % of ctl
LDH (% of ctl) [2, 4]: 112.8 % of ctl
activity at 100 µM (Aβ1-42; [3]): 53.9%
activity at 100 µM (Aβ1-42; [5]): 53.9%
reducing Aβ1-42 (Aβ1-42; primary screening): useful in reducing Aβ1-42

CCOC(=O)[C@H](CCc1ccccc1)N[C@H]1CCc2ccccc2N(CC(=O)O)C1=O [Benazepril Hydrochloride]
MTT (% of ctl) [1, 3]: 99.5 % of ctl
MTT (% of ctl) [1, 4]: 99.5 % of ctl
activity at 100 µM (Aβ1-40; [3]): 116%
activity at 100 µM (Aβ1-40; [5]): 116%
LDH (% of ctl) [2, 3]: 103.5 % of ctl
LDH (% of ctl) [2, 4]: 103.5 % of ctl
activity at 100 µM (Aβ1-42; [3]): 115%
activity at 100 µM (Aβ1-42; [5]): 115%
